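In this assay, cells in 96-well plates receive the compound at five concentrations for 48 hours. Endpoints are linearly interpolated between the surrounding concentrations. GI50 marks 50% less growth. TGI is the concentration that stops growth completely.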
Assays:
Assay in all cases: NCI-60 cell line screen, 48 h
[1] = tested on: A549 NSCLC
[2] = tested on: UACC-257 melanoma
[3] = tested on: MOLT-4 leukemia
[4] = tested on: M14 melanoma
[5] = tested on: MCF7 breast
[6] = tested on: HS 578T breast
[7] = tested on: BT-549 breast
[8] = tested on: TK-10 renal
[9] = tested on: OVCAR-5 ovarian
[10] = tested on: IGROV1 ovarian
[11] = tested on: SN12C renal
[12] = tested on: HOP-92 NSCLC
[13] = tested on: NCI/ADR-RES ovarian
[14] = tested on: SW-620 colon
[15] = tested on: CAKI-1 renal
[16] = tested on: SNB-19 CNS
[17] = tested on: NCI-H522 lung
[18] = tested on: MDA-MB-231 breast
[19] = tested on: K-562 leukemia
[20] = tested on: HCT-116 colon
[21] = tested on: KM12 colon
[22] = tested on: HT29 colon
[23] = tested on: OVCAR-8 ovarian
[24] = tested on: COLO 205 colon
[25] = tested on: SF-268 CNS
[26] = tested on: RPMI-8226 leukemia
[27] = tested on: HL-60(TB) leukemia
[28] = tested on: NCI-H226 lung
[29] = tested on: NCI-H460 lung
[30] = tested on: RXF 393 renal
[31] = tested on: UACC-62 melanoma
[32] = tested on: SK-OV-3 ovarian
[33] = tested on: NCI-H23 lung
[34] = tested on: OVCAR-3 ovarian
[35] = tested on: U251 CNS
[36] = tested on: ACHN renal
[37] = tested on: SK-MEL-5 melanoma
[38] = tested on: SR leukemia
[39] = tested on: T-47D breast
[40] = tested on: SF-539 CNS
[41] = tested on: DU-145 prostate
[42] = tested on: SF-295 CNS
[43] = tested on: PC-3 prostate
[44] = tested on: UO-31 renal
[45] = tested on: 786-0 renal
[46] = tested on: SNB-75 CNS
[47] = tested on: SK-MEL-2 melanoma
[48] = tested on: HOP-62 NSCLC
[49] = tested on: HCT-15 colon
[50] = tested on: EKVX NSCLC
[51] = tested on: MDA-MB-435
[52] = tested on: LOX IMVI melanoma
[53] = tested on: HCC-2998 colon
[54] = tested on: CCRF-CEM leukemia
[55] = tested on: MALME-3M melanoma
[56] = tested on: OVCAR-4 ovarian

SMILES: CC[C@H](NC(=O)[C@H]1CCCCN1C)C(=O)N(C)[C@H](C[C@@H](OC(C)=O)c1nc(C(=O)N[C@@H](Cc2ccccc2)C[C@H](C)C(=O)O)cs1)C(C)C
- GI50 [1]: 10.9 nM
- TGI [1]: > 14300 nM
- GI50 [2]: > 14300 nM
- TGI [2]: > 14300 nM
- GI50 [3]: 10.6 nM
- TGI [3]: > 14300 nM
- GI50 [4]: 2.44 nM
- TGI [4]: 9.69 nM
- GI50 [5]: < 1.43 nM
- TGI [5]: > 14300 nM
- GI50 [6]: 6.43 nM
- TGI [6]: > 14300 nM
- GI50 [7]: 6.31 nM
- TGI [7]: 473 nM
- TGI [8]: > 14300 nM
- GI50 [9]: 28.8 nM
- TGI [9]: > 14300 nM
- GI50 [10]: 14.5 nM
- TGI [10]: > 14300 nM
- GI50 [11]: 9.93 nM
- TGI [11]: > 14300 nM
- GI50 [12]: 5.85 nM
- TGI [12]: > 6560 nM
- GI50 [13]: 78.5 nM
- TGI [13]: > 14300 nM
- GI50 [14]: 3.98 nM
- TGI [14]: > 14300 nM
- GI50 [15]: 6.02 nM
- TGI [15]: > 14300 nM
- GI50 [16]: 5.68 nM
- TGI [16]: > 14300 nM
- GI50 [17]: 2.84 nM
- TGI [17]: 337 nM
- GI50 [18]: 8 nM
- TGI [18]: > 14300 nM
- GI50 [19]: 2.09 nM
- TGI [19]: > 14300 nM
- GI50 [20]: 3.66 nM
- TGI [20]: > 14300 nM
- GI50 [21]: 1.92 nM
- TGI [21]: > 14300 nM
- GI50 [22]: 3.88 nM
- TGI [22]: > 14300 nM
- GI50 [23]: 16.6 nM
- TGI [23]: > 14300 nM
- GI50 [24]: 3.96 nM
- TGI [24]: 49.9 nM
- GI50 [25]: < 30 nM
- TGI [25]: > 14300 nM
- GI50 [26]: 5.31 nM
- TGI [26]: > 14300 nM
- GI50 [27]: 4.33 nM
- TGI [27]: 19 nM
- TGI [28]: > 7570 nM
- GI50 [29]: 4.36 nM
- TGI [29]: > 14300 nM
- GI50 [30]: 3.91 nM
- TGI [30]: > 14300 nM
- GI50 [31]: 1.61 nM
- TGI [31]: > 14300 nM
- GI50 [32]: 3.83 nM
- TGI [32]: > 14300 nM
- GI50 [33]: 7.3 nM
- TGI [33]: > 14300 nM
- GI50 [34]: < 1.43 nM
- TGI [34]: 28.6 nM
- GI50 [35]: 4.7 nM
- TGI [35]: > 14300 nM
- GI50 [36]: 14.2 nM
- TGI [36]: > 14300 nM
- GI50 [37]: < 1.43 nM
- TGI [37]: 101 nM
- GI50 [38]: 1.83 nM
- TGI [38]: > 14300 nM
- GI50 [39]: 5.8 nM
- TGI [39]: > 14300 nM
- GI50 [40]: 3.5 nM
- TGI [40]: 26.5 nM
- GI50 [41]: 4.25 nM
- TGI [41]: > 4640 nM
- GI50 [42]: 4.56 nM
- TGI [42]: > 6440 nM
- GI50 [43]: 4.72 nM
- TGI [43]: > 14300 nM
- GI50 [44]: 74.1 nM
- TGI [44]: > 14300 nM
- GI50 [45]: 8.68 nM
- TGI [45]: > 14300 nM
- GI50 [46]: 5.28 nM
- TGI [46]: > 14300 nM
- GI50 [47]: 1.45 nM
- TGI [47]: > 14300 nM
- GI50 [48]: 6.73 nM
- TGI [48]: > 14300 nM
- GI50 [49]: 9.33 nM
- TGI [49]: > 14300 nM
- GI50 [50]: 10 nM
- TGI [50]: > 14300 nM
- GI50 [51]: < 1.43 nM
- TGI [51]: 3.91 nM
- GI50 [52]: 10.3 nM
- TGI [52]: > 14300 nM
- GI50 [53]: 11.2 nM
- TGI [53]: > 14300 nM
- GI50 [54]: 3.83 nM
- TGI [54]: > 14300 nM
- GI50 [55]: 5.38 nM
- TGI [55]: > 14300 nM
- GI50 [56]: 32.6 nM
- TGI [56]: > 14300 nM

— PubChem BioAssay (NCI)
